One assay deals with MCF7. Description: In vitro cytotoxic activity against MCF-7 (human breast cancer) cell line. In kind it is functional. The settings on record: read-out: ED50 (the source's name).
For another assay, the system named is KB. The experiment in a line: In vitro cytotoxic activity was determined against epidermoid carcinoma of the nasopharynx (KB) cell line. It is filed as functional. The conditions noted are these: Homo sapiens, read-out: ED50 (the source's name).
The next assay deals with A549. The experiment in a line: In vitro cytotoxic activity was determined against lung carcinoma (A549) cell line. In kind it is functional. The settings on record: Homo sapiens, read-out: ED50 (the source's name).
In another assay the test system is CAKI-1. Description: In vitro cytotoxic activity was determined against renal cancer (CAKI-1) cell line. In kind it is functional. The settings on record: Homo sapiens, read-out: ED50 (the source's name).
In assay [1] the test system is U-87 MG. Description: In vitro cytotoxic activity was determined against glioblastoma (U-87-MG) cell line; Not active. In kind it is functional, cell-based. The settings on record: Homo sapiens; U-87MG ATCC.
The test system of the next assay is 1A9. Description: In vitro cytotoxic activity was determined against ovarian cancer (1A9) cell line. It is filed as functional. The settings on record: Homo sapiens, read-out: ED50 (the source's name).
Assay [2] deals with SK-MEL-2. The experiment in a line: In vitro cytotoxic activity was determined against melanoma cancer (SK-MEL-2) cell line. It is filed as functional. The conditions noted are these: Homo sapiens, read-out: ED50 (the source's name).
The next assay has as its system SAOS-2. Description: In vitro cytotoxic activity was determined against osteosarcoma (SaOS-2) cell line. It is filed as functional. The settings on record: Homo sapiens, read-out: ED50 (the source's name).
For assay [3], the system named is U-87 MG. The experiment in a line: In vitro cytotoxic activity against U-87-MG (glioblastoma) cell line. It is filed as functional, U-87MG ATCC. The conditions noted are these: Homo sapiens, read-out: ED50 (the source's name).
Another assay concerns HOS. The experiment in a line: In vitro cytotoxic activity was determined against osteosarcoma ( HOS) cell line. It is filed as functional. The settings on record: Homo sapiens, read-out: ED50 (the source's name).
The test system of assay [4] is HCT-8. Description: In vitro cytotoxic activity was determined against ileocecal carcinoma (HCT-8) cell line. It is filed as functional. The settings on record: Homo sapiens, read-out: ED50 (the source's name).
The test system of a further assay is HEL. The experiment in a line: In vitro cytotoxic activity was determined against embryonic lung fibroblast (HEL) cell line. The conditions noted are these: Homo sapiens, read-out: ED50 (the source's name). In kind it is functional.
Assay [5] deals with HCT-8. The experiment in a line: In vitro cytotoxic activity was determined against ileocecal carcinoma (HCT-8) cell line; Not active. In kind it is functional, cell-based. The settings on record: Homo sapiens.
Assay [6] deals with SK-MEL-2. Description: In vitro cytotoxic activity was determined against melanoma cancer (SK-MEL-2) cell line; Not active. It is filed as functional, cell-based. The settings on record: Homo sapiens.

The structures appear in SMILES notation. ≈ marks a conversion by molar mass, not a printed value. Calls of active or inactive are those of the source. The rule behind the calls is not given here.

Data on 13 compounds can be found in ChEMBL document CHEMBL1131893, “Antitumor agents 201. Cytotoxicity of harmine and beta-carboline analogs” (1999).

On to `Cc1cc(O)n2c(n1)nc1ccccc12`, for which the EC50 in the assay with MCF7, in the assay with KB, in the assay on A549, with CAKI-1, with 1A9 and in the assay with SK-MEL-2 [2] was greater than 10 µg/mL in each case. Besides, in the assay with SAOS-2, the EC50 is greater than 10 µg/mL. Moreover, the ED50 entry in the assay with U-87 MG [1] was “inactive”.
Regarding `COc1ccc2c3ccn(C)c(C)c-3nc2c1`, the EC50 in the assay on MCF7 was 5.6 µg/mL (≈ 24.7 µM); in the assay with KB, 6.4 µg/mL (≈ 28.3 µM); with A549 it was 2.7 µg/mL (≈ 11.9 µM); with CAKI-1, 7.8 µg/mL (≈ 34.5 µM); with 1A9, 7 µg/mL (≈ 30.9 µM); in the assay on U-87 MG [3] it was 9 µg/mL (≈ 39.8 µM). Moreover, the EC50 is 10 µg/mL (≈ 44.2 µM) in the assay on SK-MEL-2 [2] and 9.6 µg/mL (≈ 42.4 µM) in the assay on SAOS-2.
Consider `COc1ccc2c(c1)[nH]c1c(C)[n+](C)ccc12.[I-]`, for which the EC50 with MCF7 was 6.2 µg/mL; with KB, 7.2 µg/mL; with A549 it was 0.9 µg/mL; in the assay with CAKI-1, 8.9 µg/mL; in the assay on 1A9 it was 7 µg/mL; in the assay on U-87 MG [3] it was 6.2 µg/mL. The EC50 was 8.4 µg/mL in the assay with SK-MEL-2 [2] and 8.2 µg/mL with SAOS-2.
Take `COc1ccc2c3c([nH]c2c1)C(C)N(N=O)CC3` (centres undefined): the EC50 is greater than 10 µg/mL in the assay with MCF7; 4.7 µg/mL (≈ 19.2 µM) with KB; greater than 10 µg/mL with A549; greater than 10 µg/mL with CAKI-1; greater than 10 µg/mL in the assay with 1A9; greater than 10 µg/mL in the assay with U-87 MG [3]. The EC50 in the assay on SK-MEL-2 [2] and in the assay on SAOS-2 was greater than 10 µg/mL in each case.
`CCCCCCOc1ccc2c(c1)[nH]c1c(C)nccc12`: the EC50 is 2.5 µg/mL (≈ 8.85 µM) in the assay with HOS; 3.1 µg/mL (≈ 11 µM) with MCF7; 2.4 µg/mL (≈ 8.5 µM) in the assay with KB; 4.4 µg/mL (≈ 15.6 µM) with A549; 2.2 µg/mL (≈ 7.79 µM) in the assay with CAKI-1; 1.9 µg/mL (≈ 6.73 µM) in the assay on 1A9. Besides, the EC50 in the assay on U-87 MG [3] was 4.2 µg/mL (≈ 14.9 µM); in the assay with SK-MEL-2 [2] it was greater than 5 µg/mL; in the assay with HCT-8 [4], 3.8 µg/mL (≈ 13.5 µM).
As for `CCOc1ccc2c(c1)[nH]c1c(C)nccc12`, the EC50 stood at 5 µg/mL (≈ 22.1 µM) with MCF7; 10.2 µg/mL (≈ 45.1 µM) in the assay on KB; 5 µg/mL (≈ 22.1 µM) in the assay with A549; 9 µg/mL (≈ 39.8 µM) in the assay on CAKI-1; 8 µg/mL (≈ 35.4 µM) in the assay on 1A9; 9.5 µg/mL (≈ 42 µM) in the assay on SK-MEL-2 [2]. In addition, in the assay with SAOS-2, the EC50 came out at 20 µg/mL (≈ 88.4 µM).
As to `Br.COc1cc2[nH]c3c(C)nccc3c2cc1Br`, the EC50 in the assay with MCF7 stood at 5.6 µg/mL; in the assay with KB, 3.5 µg/mL; in the assay with A549, 3.9 µg/mL; with CAKI-1 it was 7.3 µg/mL; in the assay on 1A9, 1.9 µg/mL; in the assay with U-87 MG [3], 6.7 µg/mL. For the same compound, the EC50 stood at 5 µg/mL in the assay on SK-MEL-2 [2] and 6.8 µg/mL in the assay on SAOS-2.
For `CCC(CC)C1NC(C(=O)O)Cc2c1[nH]c1cc(OC)ccc21` (centres undefined), the EC50 is 20 µg/mL (≈ 63.2 µM) with KB; greater than 20 µg/mL in the assay with A549; greater than 20 µg/mL in the assay with CAKI-1; greater than 20 µg/mL in the assay on 1A9; greater than 20 µg/mL in the assay on HEL.
Regarding `CCn1c2cc(OC)ccc2c2ccnc(C)c21`, the EC50 in the assay with MCF7 was determined as 5.3 µg/mL (≈ 22.1 µM); with KB, 1.8 µg/mL (≈ 7.49 µM); in the assay with A549, 4.2 µg/mL (≈ 17.5 µM); in the assay on CAKI-1 it was 7.4 µg/mL (≈ 30.8 µM); in the assay with 1A9, 1.8 µg/mL (≈ 7.49 µM); in the assay with U-87 MG [3] it was 7.4 µg/mL (≈ 30.8 µM). In addition, in the assay on HCT-8 [4], the EC50 was greater than 20 µg/mL.
Turning to `Cc1nccc2c1[nH]c1cc(OC(C)C)ccc12`, the EC50 in the assay with HOS came to 10.2 µg/mL (≈ 42.4 µM); in the assay on MCF7, 11.9 µg/mL (≈ 49.5 µM); in the assay on KB, 12.8 µg/mL (≈ 53.3 µM); in the assay with A549 it was 17 µg/mL (≈ 70.7 µM); in the assay with CAKI-1 it was 12.3 µg/mL (≈ 51.2 µM); in the assay on 1A9, 7.9 µg/mL (≈ 32.9 µM). The EC50 in the assay on U-87 MG [3] came to 16.4 µg/mL (≈ 68.2 µM). In addition, the ED50 result with HCT-8 [5] and in the assay with SK-MEL-2 [6] was “inactive” each time.
On to `COc1cc2[nH]c3c(C)nccc3c2cc1Br`, for which the EC50 is 6.5 µg/mL (≈ 22.3 µM) in the assay with HOS; 14.6 µg/mL (≈ 50.1 µM) in the assay on MCF7; 7.9 µg/mL (≈ 27.1 µM) with KB; 13.6 µg/mL (≈ 46.7 µM) with A549; 6.7 µg/mL (≈ 23 µM) in the assay with CAKI-1; 2.3 µg/mL (≈ 7.9 µM) in the assay on 1A9. For the same compound, the EC50 with U-87 MG [3] is 14 µg/mL (≈ 48.1 µM); in the assay with SK-MEL-2 [2] it was greater than 20 µg/mL; with HCT-8 [4], 16 µg/mL (≈ 55 µM).
In the case of `CCC[n+]1ccc2c([nH]c3cc(OC)ccc32)c1C.[I-]`, the EC50 is 5 µg/mL in the assay on KB; 15 µg/mL with A549; 15 µg/mL in the assay with CAKI-1; 2 µg/mL in the assay on 1A9; 9.5 µg/mL in the assay with HEL.
Regarding `COc1ccc2c(c1)[nH]c1c(/C=C/c3ccc([N+](=O)[O-])cc3)nccc12`, the EC50 in the assay on MCF7 was determined as 1.2 µg/mL (≈ 3.47 µM); in the assay with KB it was 0.5 µg/mL (≈ 1.45 µM); in the assay on A549 it was 0.9 µg/mL (≈ 2.61 µM); in the assay on CAKI-1, 7 µg/mL (≈ 20.3 µM); in the assay on 1A9 it was 0.3 µg/mL (≈ 0.869 µM); in the assay with U-87 MG [3], 1.2 µg/mL (≈ 3.47 µM). The results for the EC50 in the assay with SK-MEL-2 [2] and in the assay with SAOS-2 were 1 µg/mL (≈ 2.9 µM) and 0.9 µg/mL (≈ 2.61 µM), respectively.
